Where two headings read alike, the source gives them in different places.
System: human cancer cell lines (MDA-MB-231, MCF-7, HepG2, HeLa, AGS, HCT116, SW480, SUNE-1, H460, HCC827, H1650, A549)
Test: MTT cell viability assay, panel of human cancer cell lines
Assay type: cell-based
Settings: Homo sapiens
Procedure: SUNE1 (nasopharyngeal carcinoma), AGS (gastric adenocarcinoma), HeLa (cervix adenocarcinoma), HepG2 (hepatocellular carcinoma), U-87 MG (human glioblastoma cell), U2OS (osteosarcoma), MCF-7 (breast adenocarcinoma), MDA-MB-231 (breast adenocarcinoma), HCT116 (colorectal carcinoma), SW480 (colorectal adenocarcinoma), NCI-H460 (large cell lung carcinoma), NCI-H1650 (adenocarcinoma lung carcinoma), HCC827 (adenocarcinoma lung carcinoma), A549 (lung carcinoma), and CCD-19Lu (human lung fibroblast normal cell) were all obtained from American Type Culture Collection (ATCC, Manassas, VA, USA). Minimum Essential Media (MEM, Gibco®, ThermoFisher Scientific), Dulbecco's Modified Eagle Medium (DMEM, Gibco®, ThermoFisher Scientific), and RPMI-1640 Medium (Gibco®, ThermoFisher Scientific) supplemented with 10% Fetal Bovine Serum (Gibco®, ThermoFisher Scientific), and 100 U/mL penicillin-streptomycin (Gibco™, ThermoFisher Scientific) were used for cell culture. Cells were placed into an incubator with 5% CO2 that temperature was set at 37° C. For subculturing cells, 0.05% Trypsin-EDTA (Gibco®) was used for detaching and a subcultivation ratio of 1:5 was used.
The cell viability assay was performed by a typical MTT assay. Briefly, 5*10^3 cells were seeded in the 96-well flat bottom plate and allowed to attach overnight. After drug treatment with a serial dilution from 100 μM for 48 h, 10 μL of MTT solution (5 mg/ml prepared in PBS, filtered) was added into each well and incubate for 4 h at 37° C. The formed formazan was then dissolved with SDS solution (10% SDS in 10 mM HCl) and followed the determination of absorbance at 590 nm by a microplate reader. The change in cell viability was then calculated for each drug concentration, then normalized to control. Dose response curves from each assay were fit to a Boltzmann sigmoidal function (GraphPad Prism8, version8.0.0). The cytotoxicity of AGB and its derivatives was determined by the calculation of IC50 value (half maximal inhibitory concentration) from fitted curves, which was the concentration of drug induced 50% cell viability.

For `CCCC(=O)c1c(O)c(Cc2c(O)c(Cc3c(O)c(C)c(OC)c(C(=O)CCC)c3O)c(O)c(C(=O)[C@@H](C)CC)c2O)c(O)c(C)c1OC` [AGB, Agrimol B], the IC50 (48-h treatment, range over tested cancer cell lines, read-out: IC50 values for the tested cancer cell lines) was 1.83 to 5.81 µM and the IC50 (MTT assay, cancer cells, read-out: IC50 values against cancer cells) was < 10 µM.

Reference: patent publication US20250162973A1, “METHODS OF SYNTHESIS AND USES OF AGRIMOL COMPOUNDS” (Versitech Limited, priority 2022, published 2025)
